# Test results as given in PubChem BioAssay AID2060612 (Molecular Pharmacology Branch, DTP, NCI, 2025).
# Test system: 565232-114-T-J1-PDC complex spheroid viability
# Assay: Anticancer human tumor 565232-114-T-J1-PDC patient-derived bladder carcinoma cell line growth inhibition [CLK]
# Settings: for IC50: curve of first compound; for viability, T/C: stronger effect = lower value
# Source text: A high-throughput screen of multi-cell type tumor spheroids was designed to identify active combinations of […] and targeted small molecules. Complex spheroids include a stromal component modeled by human endothelial cells (HUVEC) and fibroblasts modeled by human mesenchymal stem cells (MSCs). The concentration ranges selected for each drug and investigational agent were based upon clinically achievable concentrations if the clinical Cmax of the agent was known.
# Compounds. The drugs and investigational agents: cirtuvivint (SM08502; NSC835563), CC-671 (NSC850746), vemurafenib (NSC761431), tapotoclax (NSC804041), sotorasib (NSC818433), adagrasib (NSC831453), MRTX-1133 (NSC836407), BAY2416964 (NSC825713), copanlisib (NSC816437), inavolisib (NSC800729), abemaciclib (NSC768073), osimertinib (NSC779217), entinostat (NSC756642), eltanexor (KPT-8602, NSC794443), venetoclax (NSC766270), ceralasertib (NSC777638), bortezomib (NSC756655), olaparib (NSC753686), talazoparib (NSC767125), alisertib (NSC759677), peposertib (NSC802822), gemcitabine (NSC613327), 5-fluorouracil (NSC19893), SN-38 (NSC673596), oxaliplatin (NSC266046), paclitaxel (NSC125973), and doxorubicin (NSC123127), were obtained from the National Cancer Institute (NCI) Developmental Therapeutics Program Chemical Repository. The FDA-approved anticancer drug set is available from the Developmental Therapeutics Program at https://dtp.cancer.gov/organization/dscb/obtaining/available plates.htm. […] The stock solutions were prepared in dimethyl sulfoxide (DMSO, Sigma-Aldrich, St. Louis, MO, cat. D2650), except for the platinum complexes which were prepared in saline (Quality Biological, Gaithersburg, MD, cat. 114-055-101), at 800-fold the tested concentration and stored at -70 degrees C prior to their use. All drugs and investigational agents were tested over a range starting from a high concentration at or near the clinical Cmax and decreasing in half-log increments. If the clinical Cmax for an agent had not been determined, the highest concentration tested was 10 microM.
# Cell Culture. All cells were maintained in an incubator at 37 degrees C and 5% CO2 with 95% humidity. The PDC lines were cultured according to standard operating procedures established by the NCI PDMR. Briefly, all PDCs were thawed and cultured in Matrigel-coated flasks prepared with a working solution of 1X Ham's F-12 nutrient mix, without supplementation (Invitrogen, Waltham, MA, cat. 11765054), 100 U/mL penicillin-streptomycin (Invitrogen, cat. 15140122), and 2.5% Matrigel (Corning Inc., Corning, NY, cat. 354248) for the first three passages. The 947758-054-R-J2-PDC line was cultured in 6B/Colon 1A media, which includes advanced DMEM/F-12 (Thermo Fisher Scientific, cat. 12634028), 10 mM HEPES (Thermo Fisher Scientific, cat. 15630080), 1X GlutaMAX supplement (Thermo Fisher Scientific, cat. 35050061), 0.1 mg/mL primocin (InvivoGen, cat. ant-pm-2), 10% defined fetal bovine serum, heat inactivated (HyClone Laboratories Inc., cat. SH30070.03HI), 1.25 mM N-Acetyl-L-cysteine (Sigma-Aldrich, cat. A9165), 10 mM nicotinamide (Sigma-Aldrich, cat. N0636), 1X B-27 supplement (Thermo Fisher Scientific, cat. 17504044), 1X N-2 supplement (Thermo Fisher Scientific, cat. 17502048), and 10 microM Y-27632 dihydrochloride (Tocris Bioscience, cat. 1254). The 876862-298-R-J1-PDC was cultured in 6E media, which includes all 6B/Colon 1A media components plus 50% L-WRN conditioned media (ATCC, cat. CRL-3276), 50 ng/mL recombinant human EGF recombinant protein (hEGF; Thermo Fisher Scientific, cat. PHG0311), 10 ng/mL recombinant human fibroblast growth factor 10 (hGFG-10; PeproTech, cat. 100-26), 1 ng/mL recombinant human fibroblast growth factor 2 (hFGF-2; PeproTech, cat. 100-18B), and 1 µM prostaglandin E2 (PGE2; Tocris, cat. 2296). The 227483-062-R1-J1-PDC line was cultured in Panc media, containing all 6E components except hFGF-2, with the addition of 500 nM SB-431542 (Selleckchem, cat. S1067) and 10 nM gastrin (Tocris, cat. 3006). […]
# 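Also: spheroids exposed to compounds for 7 days before readout.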
# 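For viability, T/C in this document: 100% = DMSO vehicle wells with luminescence normalized to vehicle control.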
smiles,measurement,setting,value
NC(=O)C(=Cn1cnc(-c2cc(C(F)(F)F)cc(C(F)(F)F)c2)n1)c1cncnc1 + CN1CCN(c2cc(C(=O)Nc3cc4cc(-c5cnn(C)c5)ccc4cn3)ccn2)CC1,IC50,second compound 0.0316 µM,384 nM
same,IC50,second compound 0.1 µM,190 nM
same,IC50,second compound 0.316 µM,< 9.49 nM
same,IC50,second compound 1 µM,< 9.49 nM
same,IC50,second compound 3.16 µM,< 9.49 nM
same,IC50,second compound 10 µM,< 9.49 nM
same,"viability, T/C","second compound 0.0316 µM, first compound 0.00949 µM",110%
same,"viability, T/C","second compound 0.0316 µM, first compound 0.03 µM",79.4%
same,"viability, T/C","second compound 0.0316 µM, first compound 0.0949 µM",116%
same,"viability, T/C","second compound 0.0316 µM, first compound 0.3 µM",63%
same,"viability, T/C","second compound 0.0316 µM, first compound 0.949 µM",2.12%
same,"viability, T/C","second compound 0.0316 µM, first compound 3 µM",2.86%
same,"viability, T/C","second compound 0.1 µM, first compound 0.00949 µM",112%
same,"viability, T/C","second compound 0.1 µM, first compound 0.03 µM",89.6%
same,"viability, T/C","second compound 0.1 µM, first compound 0.0949 µM",69.7%
same,"viability, T/C","second compound 0.1 µM, first compound 0.3 µM",44.2%
same,"viability, T/C","second compound 0.1 µM, first compound 0.949 µM",1.42%
same,"viability, T/C","second compound 0.1 µM, first compound 3 µM",0.17%
same,"viability, T/C","second compound 0.316 µM, first compound 0.00949 µM",11.2%
same,"viability, T/C","second compound 0.316 µM, first compound 0.03 µM",19.1%
same,"viability, T/C","second compound 0.316 µM, first compound 0.0949 µM",4.82%
same,"viability, T/C","second compound 0.316 µM, first compound 0.3 µM",0.31%
same,"viability, T/C","second compound 0.316 µM, first compound 0.949 µM",0.21%
same,"viability, T/C","second compound 0.316 µM, first compound 3 µM",0.15%
same,"viability, T/C","second compound 1 µM, first compound 0.00949 µM",0.13%
same,"viability, T/C","second compound 1 µM, first compound 0.03 µM",1.42%
same,"viability, T/C","second compound 1 µM, first compound 0.0949 µM",0.31%
same,"viability, T/C","second compound 1 µM, first compound 0.3 µM",0.24%
same,"viability, T/C","second compound 1 µM, first compound 0.949 µM",0.19%
same,"viability, T/C","second compound 1 µM, first compound 3 µM",0.08%
same,"viability, T/C","second compound 3.16 µM, first compound 0.00949 µM",0.19%
same,"viability, T/C","second compound 3.16 µM, first compound 0.03 µM",0.22%
same,"viability, T/C","second compound 3.16 µM, first compound 0.0949 µM",3.11%
same,"viability, T/C","second compound 3.16 µM, first compound 0.3 µM",0.24%
same,"viability, T/C","second compound 3.16 µM, first compound 0.949 µM",1.65%
same,"viability, T/C","second compound 3.16 µM, first compound 3 µM",0.16%
same,"viability, T/C","second compound 10 µM, first compound 0.00949 µM",0.14%
same,"viability, T/C","second compound 10 µM, first compound 0.03 µM",0.12%
same,"viability, T/C","second compound 10 µM, first compound 0.0949 µM",1.13%
same,"viability, T/C","second compound 10 µM, first compound 0.3 µM",0.76%
same,"viability, T/C","second compound 10 µM, first compound 0.949 µM",0.21%
same,"viability, T/C","second compound 10 µM, first compound 3 µM",0.37%
Nc1ccccc1NC(=O)c1ccc(CNC(=O)OCc2cccnc2)cc1 + CN1CCN(c2cc(C(=O)Nc3cc4cc(-c5cnn(C)c5)ccc4cn3)ccn2)CC1,IC50,second compound 0.0316 µM,5260 nM
same,IC50,second compound 0.1 µM,2660 nM
same,IC50,second compound 0.316 µM,< 31.6 nM
same,IC50,second compound 1 µM,< 31.6 nM
same,IC50,second compound 3.16 µM,< 31.6 nM
same,IC50,second compound 10 µM,< 31.6 nM
same,"viability, T/C","second compound 0.0316 µM, first compound 0.0316 µM",110%
same,"viability, T/C","second compound 0.0316 µM, first compound 0.1 µM",108%
same,"viability, T/C","second compound 0.0316 µM, first compound 0.316 µM",111%
same,"viability, T/C","second compound 0.0316 µM, first compound 1 µM",100%
same,"viability, T/C","second compound 0.0316 µM, first compound 3.16 µM",89.8%
same,"viability, T/C","second compound 0.0316 µM, first compound 10 µM",1.38%
same,"viability, T/C","second compound 0.1 µM, first compound 0.0316 µM",107%
same,"viability, T/C","second compound 0.1 µM, first compound 0.1 µM",93.5%
same,"viability, T/C","second compound 0.1 µM, first compound 0.316 µM",92.5%
same,"viability, T/C","second compound 0.1 µM, first compound 1 µM",89.9%
same,"viability, T/C","second compound 0.1 µM, first compound 3.16 µM",42.9%
same,"viability, T/C","second compound 0.1 µM, first compound 10 µM",0.29%
same,"viability, T/C","second compound 0.316 µM, first compound 0.0316 µM",16.2%
same,"viability, T/C","second compound 0.316 µM, first compound 0.1 µM",23%
same,"viability, T/C","second compound 0.316 µM, first compound 0.316 µM",11.5%
same,"viability, T/C","second compound 0.316 µM, first compound 1 µM",9.54%
same,"viability, T/C","second compound 0.316 µM, first compound 3.16 µM",2.07%
same,"viability, T/C","second compound 0.316 µM, first compound 10 µM",0.07%
same,"viability, T/C","second compound 1 µM, first compound 0.0316 µM",0.15%
same,"viability, T/C","second compound 1 µM, first compound 0.1 µM",1.24%
same,"viability, T/C","second compound 1 µM, first compound 0.316 µM",3.47%
same,"viability, T/C","second compound 1 µM, first compound 1 µM",0.16%
same,"viability, T/C","second compound 1 µM, first compound 3.16 µM",1.45%
same,"viability, T/C","second compound 1 µM, first compound 10 µM",0.11%
same,"viability, T/C","second compound 3.16 µM, first compound 0.0316 µM",0.3%
same,"viability, T/C","second compound 3.16 µM, first compound 0.1 µM",3.93%
same,"viability, T/C","second compound 3.16 µM, first compound 0.316 µM",3.86%
same,"viability, T/C","second compound 3.16 µM, first compound 1 µM",0.23%
same,"viability, T/C","second compound 3.16 µM, first compound 3.16 µM",0.19%
same,"viability, T/C","second compound 3.16 µM, first compound 10 µM",0.18%
same,"viability, T/C","second compound 10 µM, first compound 0.0316 µM",0.11%
same,"viability, T/C","second compound 10 µM, first compound 0.1 µM",0.5%
same,"viability, T/C","second compound 10 µM, first compound 0.316 µM",2.65%
same,"viability, T/C","second compound 10 µM, first compound 1 µM",0.16%
same,"viability, T/C","second compound 10 µM, first compound 3.16 µM",0.94%
same,"viability, T/C","second compound 10 µM, first compound 10 µM",0.18%
